pIC50: −log10 of the molar value.
Key:
Format in all cases: functional
L1210 = assay: Evaluated for cell growth inhibition and induction of cellular differentiation of Murine leukemia cell line (L-1210); conditions: Mus musculus, read-out: ID50 (the source's name)
K562 = assay: Evaluated for cell growth inhibition and induction of cellular differentiation of human myeloid leukemia cell line (K562); conditions: read-out: ID50 (the source's name)
HL-60 = assay: Evaluated for cell growth inhibition and induction of cellular differentiation of human myeloid leukemia cell line (HL-60); conditions: read-out: ID50 (the source's name)
[1] = Evaluated for cell growth inhibition and induction of cellular differentiation of human B-lymphoblast cell line (WI-L2); conditions: WIL2, read-out: ID50 (the source's name)

NC(=O)c1nn([C@@H]2O[C@H](CO)[C@@H](O)[C@H]2O)nc1C(N)=O
pIC50 (L1210): < 4.00
pIC50 (K562): 4.59
pIC50 (HL-60): 4.49
pIC50 [1]: 4.39

N=C(N)c1nn(C2OC(CO)[C@H](O)C2O)c(N)c1C(=N)N (stereo not given in full)
pIC50 (L1210): 3.70
pIC50 (K562): < 3.70
pIC50 (HL-60): 3.89
pIC50 [1]: 3.75

N=C(NO)c1nn(C2O[C@H](CO)[C@@H](O)[C@H]2O)nc1/C(N)=N/O (stereo not given in full)
pIC50 (L1210): < 3.70
pIC50 (K562): < 3.70
pIC50 (HL-60): < 3.70
pIC50 [1]: < 3.70

NC(=O)c1cn(C2O[C@H](CO)[C@@H](O)[C@H]2O)nc1C(N)=O (stereo not given in full)
pIC50 (L1210): < 4.00
pIC50 (K562): 3.80
pIC50 (HL-60): 4.24
pIC50 [1]: 4.00

N=C(NO)c1nn(C2O[C@H](CO)[C@@H](O)[C@H]2O)c(N)c1/C(N)=N/O (stereo not given in full)
pIC50 (L1210): < 3.70
pIC50 (K562): < 3.70
pIC50 (HL-60): < 3.70
pIC50 [1]: < 3.70

N=C(S)c1nn(C2O[C@H](CO)[C@@H](O)[C@H]2O)nc1C(N)=S (stereo not given in full)
pIC50 (L1210): < 3.70
pIC50 (K562): < 3.70
pIC50 (HL-60): < 3.70
pIC50 [1]: < 3.70

NC(=O)c1nn(C2O[C@H](CO)[C@@H](O)[C@H]2O)c(N)c1C(N)=O (stereo not given in full)
pIC50 (L1210): 4.36
pIC50 (K562): 4.29
pIC50 (HL-60): 4.41
pIC50 [1]: 4.34

N=C(S)c1nn(C2O[C@H](CO)[C@@H](O)[C@H]2O)c(N)c1C(N)=S (stereo not given in full)
pIC50 (L1210): < 3.70
pIC50 (K562): < 3.70
pIC50 (HL-60): 3.70
pIC50 [1]: 3.81

NC(=O)c1cn(C2O[C@H](CO)[C@@H](O)[C@H]2O)cc1C(N)=O (stereo not given in full)
pIC50 (L1210): 4.32
pIC50 (K562): 4.49
pIC50 (HL-60): 4.44
pIC50 [1]: 4.48

NC(=O)c1ncn([C@@H]2O[C@H](CO)[C@@H](O)[C@H]2O)n1 [RIBAVIRIN]
pIC50 (L1210): 4.44
pIC50 (K562): 4.30
pIC50 (HL-60): 4.17
pIC50 [1]: 4.38
